Several values for one entry are separate records, joined by “and”; a condition that tells them apart may be missing. Equal entries are not always repeated. Activity calls are given as the source filed them.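 How the source made its calls: active means compound whose mean IC50 is 10 µM or lower in every cell protection panel where tested; inactive means the rest.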
Legend:
H9c2 = assay: protection of cardiomyocytes from stress damage, SAR follow-up, cell-based, panel, H9c2 and HL-1, ATP luminescence, set 2 (AID 651871); settings: H9c2/HL-1 cardiomyocytes;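 further: cells exposed to stressor for 2 h before ATP readout; potency for protection of cells against peroxide damage not for cytotoxicity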
HL-1 = assay: as above; settings: H9c2/HL-1 cardiomyocytes
[1] = H2O2 oxidative stress, with H2O2, mean of runs
[2] = 2-deoxyglucose stress, with 2-deoxyglucose, mean of runs

Row | SMILES | IC50 (H9c2; [1]) | IC50 (HL-1; [1]) | IC50 (H9c2; [2]) | IC50 (HL-1; [2])
1 | COc1cc(-c2cc(C(=O)Nc3cccc(C(=O)NCc4ccccc4)c3)c3ccccc3n2)cc(OC)c1OC | 0.411 µM | 3.97 µM |  | 
2 | COc1ccc2nc(-c3cc(OC)c(OC)c(OC)c3)cc(C(=O)NCC(=O)Nc3ccc(C(C)=O)cc3)c2c1 | 0.634 µM and 0.44 µM | 6.53 µM and 3.98 µM | 3.87 µM | 4.3 µM
3 | CCOC(=O)c1cccc(NC(=O)CNC(=O)c2cc(-c3cc(OC)c(OC)c(OC)c3)nc3ccccc23)c1 | 0.28 µM | 3.41 µM | 2.72 µM | 2.9 µM
4 | COc1ccc2c(c1OC)C(=O)N1c3ccccc3C(=O)N(Cc3cccc(Cl)c3Cl)C21 (centres undefined) | 0.215 µM and 0.391 µM and 11.7 µM (inactive) | > 79 µM (inactive) | 4.57 µM and 6.37 µM and > 79 µM (inactive) | 2.65 µM and 3.05 µM and > 79 µM (inactive)
